# According to US11078202B2, “β-lactamase inhibitor and use thereof” (priority 2018, dated 2021):
# Read-outs that look alike come from different tables or passages of the source.
# Columns and labels:
# Format in all cases: cell-based
# [1] = system: Klebsiella pneumoniae XNWB 0002 (KPC-2, SHV-5); assay: microbe, parasite or virus in culture
# Experimental: (§1) The bacterial strains used for the minimum inhibitory concentration (MIC) test were frozen in a −80° C. ULT freezer and thawed 2 days before use. A small amount of frozen bacterial strains were scraped using a sterile inoculating loop, streaked onto a TSA solid culture dish for inoculation, and then cultured for 20-24 h at 35±2° C. in a normal atmospheric environment.
# (§2) 5-10 colonies with similar morphology were picked from the culture dish using a sterile inoculating loop and then re-streaked onto a suitable solid culture dish. Then the dish was placed into a normal incubator for culture for 20-24 h at 35±2° C.
# (§3) 5-10 single bacterial colonies were picked from the solid culture dish, resuspended in 500 μL of 0.9% NaCl, and adjusted to an OD600 of 0.1-0.15 with a spectrophotometer.
# (§4) The bacteria were then diluted 300-fold with 1.1×CAMHB.
# (§5) After addition, the 6 assay plates were covered by sterile covers. The mixtures in the assay plates were centrifuged by a centrifuge at 1000 rpm for 30 s, and mixed uniformly by oscillating with a microplate oscillator at 800 rpm for 1 min, and then cultured in a common incubator for 16-20 h at 35±2° C.
# (§6) The minimum inhibitory concentration of each compound was recorded by reference to guidelines from the Clinical and Laboratory Standards Institute.
# (§7) The minimum inhibitory concentrations of the compounds of the present invention and antibiotics (imipenem, ceftazidime, and ampicillin) against 11 strains of bacteria were tested in this study by reference to the medium microdilution method as indicated by the Clinical and Laboratory Standards Institute. The effect of the test compounds in combination with imipenem, ceftazidime, and ampicillin was also tested. Compounds were diluted two-fold in 96-well plates from the highest detection concentration of 64 μg/mL. The test compounds were tested in combination with a fixed concentration of imipenem (4 μg/mL), ceftazidime (8 μg/mL), and ampicillin (8 μg/mL). The bacterial inocula in the assay plates were resuscitated from TSA and diluted in CAMHB, while growth controls (GC wells) and sterile controls (SC wells) were set up in the assay plates.
# [2] = system: Klebsiella pneumoniae XNWB 0004 (KPC-2, SHV-12); assay: microbe, parasite or virus in culture
# Experimental: as §1, §2, §3, §4, §5, §6, §7
# [3] = system: Acinetobacter baumannii XNWB 0007 (AmpC); assay: MIC of antibiotics alone, broth microdilution; conditions: antibiotic alone, A. baumannii XNWB 0007, β-lactamase AmpC
# Experimental: as §1, §2, §3, §4, §5, §6, §7
# [4] = system: Enterobacter aerogenes XNWB 0011 (TEM-10); assay: MIC of antibiotics alone, broth microdilution; conditions: Klebsiella aerogenes; antibiotic alone; E. aerogenes XNWB 0011, β-lactamase TEM-10
# Experimental: as §1, §2, §3, §4, §5, §6, §7
# [5] = system: Escherichia coli XNWB 0009 (SHV-5A); assay: MIC of antibiotics alone, broth microdilution
# Experimental: as §1, §2, §3, §4, §5, §6, §7
# [6] = system: Escherichia coli XNWB 0010 (SHV-2); assay: MIC of antibiotics alone, broth microdilution; conditions: antibiotic alone, E. coli XNWB 0010, β-lactamase SHV-2
# Experimental: as §1, §2, §3, §4, §5, §6, §7
# [7] = system: Klebsiella pneumoniae XNWB 0001 (KPC-1/2); assay: MIC of antibiotics alone, broth microdilution; conditions: antibiotic alone, K. pneumoniae XNWB 0001, β-lactamase KPC-1/2
# Experimental: as §1, §2, §3, §4, §5, §6, §7
# [8] = system: Klebsiella pneumoniae XNWB 0003 (KPC-11, SHV-12); assay: MIC of antibiotics alone, broth microdilution; conditions: antibiotic alone, K. pneumoniae XNWB 0003, β-lactamase KPC-11, SHV-12, read-out: MIC
# Experimental: as §1, §2, §3, §4, §5, §6, §7
# [9] = system: Klebsiella pneumoniae XNWB 0005 (KPC-3); assay: MIC of antibiotics alone, broth microdilution; conditions: antibiotic alone, K. pneumoniae XNWB 0005, β-lactamase KPC-3, read-out: MIC
# Experimental: as §1, §2, §3, §4, §5, §6, §7
# [10] = system: Klebsiella pneumoniae XNWB 0006 (CTX-M-15, SHV); assay: MIC of antibiotics alone, broth microdilution
# Experimental: as §1, §2, §3, §4, §5, §6, §7
# [11] = system: Pseudomonas aeruginosa XNWB 0008 (AmpC); assay: MIC of antibiotics alone, broth microdilution; conditions: antibiotic alone, P. aeruginosa XNWB 0008, β-lactamase AmpC, read-out: MIC
# Experimental: as §1, §2, §3, §4, §5, §6, §7
Compound,MIC [1],MIC [2],MIC [3],MIC [4],MIC [5],MIC [6],MIC [7],MIC [8],MIC [9],MIC [10],MIC [11],"MIC ([10]; antibiotic alone, K. pneumoniae XNWB 0006, β-lactamase CTX-M-15, SHV, read-out: MIC)"
C[C@@H](O)[C@H]1C(=O)N2C(C(=O)O)=C(SCCN=CN)C[C@H]12 [Imipenem],32 to 64 µg/mL,64 µg/mL,32 to 64 µg/mL,0.5 to 1 µg/mL,0.125 to 0.5 µg/mL,≤ 0.125 µg/mL,64 to 128 µg/mL,8 to 16 µg/mL,32 to 64 µg/mL,0.125 to 0.5 µg/mL,16 to 32 µg/mL,
CC1(C)S[C@@H]2[C@H](NC(=O)[C@H](N)c3ccccc3)C(=O)N2[C@H]1C(=O)O [Ampicillin],> 32 µg/mL,> 32 µg/mL,> 32 µg/mL,> 32 µg/mL,> 32 µg/mL,> 32 µg/mL,> 32 µg/mL,> 32 µg/mL,> 32 µg/mL,,> 32 µg/mL,> 32 µg/mL
